Experimental data published in US20260327211A1, “MODULATORS OF A POTASSIUM CHANNEL AND OF TRPV1 CHANNEL AND USES THEREOF” (Bsense Bio Therapeutics Ltd., priority 2023, published 2026).
Several values for one entry are separate records, joined by “and”; a condition that tells them apart may be missing. Equal values may be shown once. Read-outs that look alike come from different tables or passages of the source.

What was measured:
Rat pharmacokinetics = assay type: in vivo; conditions: for clearance: read-out: PK: Cl; for bioavailability: po, 10 mg/kg; for half-life: read-out: PK: T1/2 (converted)
Procedure: The pharmacokinetic (PK) properties of test compound following single intravenous (IV) bolus and oral gavage (PO) administration in male Sprague-Dawley (SD) rats were determined in this study.
Test compound administration: Six male Sprague Dawley (SD) rats were divided into two designated groups, Group 1 and Group 2, each composed of three rat subjects. Group 1 animals were subjected to a single intravenous bolus administration of the test compound at a dosage of 1 mg/kg. Group 2 animals were administered with the test compound orally in a single dose, at a concentration of 10 mg/kg. Throughout the study, the animals had unhindered access to food. The test compound was administered at a concentration of 0.5 mg/mL and dose volume of 2 mL/kg for Group 1, and at a concentration of 1 mg/mL and dose volume of 10 mL/kg, for Group 2.
Sample extraction and analysis: Plasma samples were systematically collected at varying time points of 0.083 (only for Group 1), 0.25, 0.5, 1, 2, 4-, 6-, 8-, and 24-hours post-dose. LC-MS/MS was used to determine the test compound's concentration within the collected plasma samples. Data reflecting plasma concentration in correlation to time were graphically represented and subjected to a non-compartmental analysis using the Phoenix WinNonlin 6.3 software program. The resulting pharmacokinetic parameters, including Clearance (Cl), Volume of distribution at steady state (Vdss) and initial concentration (C0) for intravenous administration; peak concentration (Cmax), time of peak concentration (Tmax), and bioavailability (% F) for extravascular administration; and half-life (T1/2), Area Under Curve from time zero to time t (AUC(0-t)), Area Under Curve from time zero to infinity (AUC(0-inf)), Mean Residence Time from time zero to time t (MRT(0-t)), Mean Residence Time from time zero to infinity (MRT(0-inf)) for all routes, were systematically calculated.

hTRPV1 = biological target: T1, hTRPV1 (Homo sapiens, UniProt Q8NER1); assay: hTRPV1 dual activity electrophysiology, CHO cells co-expressing hKv7.2/3 and hTRPV1; assay type: cell-based
T1 construct: CDS of NM_080704.4, inserted into the multiple cloning site of pcDNA3.1(+); host or cells: CHO/hKv7.2/3

[1] = rat, plasma, read-out: PK: Oral BA
[2] = Dual hTRPV1 / Dual Expressing CHO, CAP IC50, Kv7.2/3 co-expressed and activated, capsaicin

T1 sequence (Q8NER1 whole entry): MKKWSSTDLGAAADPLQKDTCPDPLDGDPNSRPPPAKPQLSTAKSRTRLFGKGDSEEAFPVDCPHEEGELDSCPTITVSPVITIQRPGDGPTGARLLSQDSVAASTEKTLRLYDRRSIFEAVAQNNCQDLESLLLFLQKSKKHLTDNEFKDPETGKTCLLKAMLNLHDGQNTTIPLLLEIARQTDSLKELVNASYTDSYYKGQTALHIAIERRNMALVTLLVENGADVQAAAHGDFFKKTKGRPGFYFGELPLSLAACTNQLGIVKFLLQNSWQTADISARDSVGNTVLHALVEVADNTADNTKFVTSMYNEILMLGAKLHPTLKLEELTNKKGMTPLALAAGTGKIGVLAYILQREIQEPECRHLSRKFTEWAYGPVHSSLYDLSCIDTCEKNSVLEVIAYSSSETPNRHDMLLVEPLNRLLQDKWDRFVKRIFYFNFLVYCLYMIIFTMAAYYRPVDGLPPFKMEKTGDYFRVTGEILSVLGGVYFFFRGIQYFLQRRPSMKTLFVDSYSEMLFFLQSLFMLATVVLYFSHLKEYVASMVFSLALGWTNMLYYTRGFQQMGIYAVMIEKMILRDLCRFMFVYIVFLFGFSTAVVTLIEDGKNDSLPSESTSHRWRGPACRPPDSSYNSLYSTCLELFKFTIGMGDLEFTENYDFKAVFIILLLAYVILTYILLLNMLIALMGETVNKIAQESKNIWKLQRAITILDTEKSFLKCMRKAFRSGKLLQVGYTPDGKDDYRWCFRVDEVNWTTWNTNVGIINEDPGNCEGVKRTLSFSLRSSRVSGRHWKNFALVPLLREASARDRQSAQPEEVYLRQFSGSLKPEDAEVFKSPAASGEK

Row | SMILES | clearance (Rat pharmacokinetics; rat, plasma, iv, 1 mg/kg) [mL/min/kg] | bioavailability (Rat pharmacokinetics; [1]) [%] | IC50 (hTRPV1; [2]) | half-life (Rat pharmacokinetics; rat, plasma) [min] | also measured
1 | Cc1cn(-c2ccc(F)c(CC(=O)NCC(C)(C)O)c2)c2c(Cl)cc(Cl)cc12 [Compound 421] | 38.5 | 10.6 |  |  | 
2 | O=C(Cc1cc(-n2cc(Cl)c3cc(Cl)cc(Cl)c32)ccc1F)NCCO [Compound 627] | 65.8 | 25.3 | 0.26 nM and 0.27 nM | 88.8 | 
3 | O=C(Cc1cncc(-n2cc(Cl)c3cc(Cl)cc(Cl)c32)c1)N[C@@H]1COC[C@H]1O [Compound 661] | 35.7 | 28.8 | 0.07 nM and 0.068 nM | 149 | TRPV1 inhibition, dual-expressing CHO (hTRPV1; 0.01 nM): mild inhibition; TRPV1 inhibition, dual-expressing CHO (hTRPV1; 0.1 nM): inhibited; Potency in dual-expressing CHO vs CHO expressing only TRPV1 (hTRPV1; cho cells): > 200,000 fold; Multiple of free plasma exposure over IC50 (rat DRG) (Rat pharmacokinetics; 10 mg/kg oral): 30 fold; Free plasma exposure, fu plasma C8 hour (Rat pharmacokinetics; 10 mg/kg oral, 8 hours): 0.09 nM; Dose from which efficacious levels are expected (Rat pharmacokinetics; oral, extrapolated from 10 mg/kg): 2 mg/kg
4 | O=C(Cc1nccc(-n2cc(Cl)c3cc(Cl)cc(Cl)c32)n1)NC1COCC1O (stereo not drawn) [Compound 760] | 60.1 |  | 0.201 nM | 161 | inhibition at 100 µM (hTRPV1; CHO, read-out: hTRPV1 current inhibition): 46 ± 13.7%; IC50 (hTRPV1; IC50 of hTRPV1 current inhibition in CHOs with both targets co-expressed and activated, EP): ~0.1 nM; Vd (Rat pharmacokinetics; rat, plasma, iv, 1 mg/kg, read-out: Volume of distribution at steady state (Vdss)): 2.37 L/kg; bioavailability (Rat pharmacokinetics; rat, plasma, read-out: Oral bioavailability): 48.6%

The next lines start with results.

Row | clearance (Rat pharmacokinetics; rat, plasma, iv, 1 mg/kg) [mL/min/kg] | bioavailability (Rat pharmacokinetics; [1]) [%] | IC50 (hTRPV1; [2]) | half-life (Rat pharmacokinetics; rat, plasma) [min] | SMILES | also measured
5 |  |  | 48 nM |  | O=C(Cc1ccnc(-n2cc(Cl)c3cc(Cl)cc(Cl)c32)n1)N[C@@H]1COC[C@H]1O [Compound 820] | 
6 | 6.6 | 73.4 | 0.528 nM |  | O=C(Cc1cc(-n2cc(C(F)(F)F)c3cc(Cl)cc(Cl)c32)ncn1)NCCO [Compound 843] | 
